Source: patent US8263606B2 (Xenon Pharmaceuticals Inc., priority 2008, dated 2012)

Experiments:
CYP3A4 = CYP3A4 (Homo sapiens, UniProt P08684); test: Cytochrome P450 (CYP450) Inhibition Assay, CYP3A4 (Vivid fluorescence, BOMCC substrate); conditions: human, P450 Baculosomes (recombinant CYP3A4), probe BOMCC (Vivid substrate)
sodium channel = test: Guanidine influx assay (14C-guanidine radiotracer flux, in vitro); type: cell-based, human or rat; conditions: guanidine influx assay using a known cell line that expresses a sodium channel
Method in brief: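 Cells stably expressing human or rat sodium channels (~100,000/well, 20–24 h) were exposed in low-sodium choline buffer to test agent plus aconitine activator and 14C-guanidine at ambient temperature. Intracellular 14C-guanidine was counted by scintillation; IC50 fitted by 4-parameter logistic over half-dilutions around 1 μM.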

CYP3A4, sequence (P08684 whole entry): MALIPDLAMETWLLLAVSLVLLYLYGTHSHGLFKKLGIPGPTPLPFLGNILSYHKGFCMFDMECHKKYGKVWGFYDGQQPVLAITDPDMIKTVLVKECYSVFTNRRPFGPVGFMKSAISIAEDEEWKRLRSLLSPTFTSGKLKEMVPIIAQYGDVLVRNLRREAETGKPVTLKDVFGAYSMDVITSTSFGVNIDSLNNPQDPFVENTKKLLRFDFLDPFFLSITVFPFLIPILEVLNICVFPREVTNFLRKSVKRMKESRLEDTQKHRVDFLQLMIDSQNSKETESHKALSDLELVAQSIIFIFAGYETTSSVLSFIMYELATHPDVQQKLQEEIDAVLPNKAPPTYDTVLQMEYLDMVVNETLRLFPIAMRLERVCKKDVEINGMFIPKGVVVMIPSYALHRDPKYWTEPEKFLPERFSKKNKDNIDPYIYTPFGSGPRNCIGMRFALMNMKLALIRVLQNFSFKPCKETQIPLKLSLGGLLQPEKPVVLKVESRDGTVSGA

In the case of `O=C1N(Cc2cccc(C(F)(F)F)c2)c2ccccc2C12COc1cc3c(cc12)OCCO3` (stereo not drawn) [Example 7.1, 1′-[3-(trifluoromethyl)benzyl]-2,3-dihydrospiro[furo[2,3-g][1,4]benzodioxine-8,3′-indol]-2′(1′H)-one], the inhibition at 10 µM (CYP3A4) is reported as less than 50%, the melting point is reported as 131 to 134 °C and the IC50 (sodium channel; activity level class) is reported as 1 to 100 nM.
Work on `O=C1N(Cc2ncccc2Br)c2ccccc2C12COc1cc3c(cc12)OCCO3` (stereo not drawn) [Example 11.78] yielded an inhibition at 10 µM (CYP3A4) of less than 50%, a melting point of 217 to 218 °C and an IC50 (sodium channel) of 1 to 100 nM.
For `O=C1Nc2ccc(F)cc2C12COc1cc3c(cc12)CCO3` (stereo not drawn) [Example 3.4, 5′-fluoro-5,6-dihydrospiro[benzo[1,2-b:5,4-b′]difuran-3,3′-indol]-2′(1′H)-one], the inhibition at 10 µM (CYP3A4) was greater than 50%, the melting point was 257 to 259 °C and the IC50 (sodium channel; activity level class) was 1000 to 10000 nM.
With `COc1ccccc1NC(=O)c1ccccc1CN1C(=O)C2(COc3cc4c(cc32)CCO4)c2ccccc21` (stereo not drawn) [Example 12.11, N-(2-methoxyphenyl)-2-[(2′-oxo-5,6-dihydrospiro[benzo[1,2-b:5,4-b′]difuran-3,3′-indol]-1′(2′H)-yl)methyl]benzamide] the inhibition at 10 µM (CYP3A4) was greater than 50%, the melting point was 172 to 174 °C and the IC50 (sodium channel) was 1000 to 10000 nM.
In the case of `O=C1N(CCC(O)C(F)(F)F)c2ccccc2C12COc1cc3c(cc12)CCO3` (stereo not drawn) [Example 14.5, 1′-(4,4,4-trifluoro-3-hydroxybutyl)-5,6-dihydrospiro[benzo[1,2-b:5,4-b′]difuran-3,3′-indol]-2′(1′H)-one], the inhibition at 10 µM (CYP3A4) is reported as greater than 50%, the melting point is reported as 124 to 126 °C and the IC50 (sodium channel) is reported as 100 to 1000 nM.
`COc1ccc(CN2C(=O)C3(COc4cc5c(cc43)OCCO5)c3ccccc32)cn1` (stereo not drawn) [Example 5.15, 1′-[(6-methoxypyridin-3-yl)methyl]-2,3-dihydrospiro[furo[2,3-g][1,4]-benzodioxine-8,3′-indol]-2′(1′H)-one] gave an inhibition at 10 µM (CYP3A4) of less than 50%, a melting point of 161 to 162 °C and an IC50 (sodium channel; activity level class) of 1 to 100 nM.
Molecule `O=C1N(Cc2nsc(Cl)n2)c2ccccc2C12COc1cc3c(cc12)OCO3` (stereo not drawn) [Example 6, 1′-[(5-chloro-1,2,4-thiadiazol-3-yl)methyl]spiro[furo[2,3-f][1,3]benzodioxole-7,3′-indol]-2′(1′H)-one] has an inhibition at 10 µM (CYP3A4) greater than 50%, a melting point of 114 to 116 °C and an IC50 (sodium channel; activity level class) of 1 to 100 nM.
`O=C1Nc2ccccc2C12COc1cc3c(cc12)CCCO3` (stereo not drawn) [Example 3.21, 6,7-dihydro-5H-spiro[furo[3,2-g]chromene-3,3′-indol]-2′(1′H)-one] showed an inhibition at 10 µM (CYP3A4) of less than 50%, a melting point of 216 to 220 °C and an IC50 (sodium channel; activity level class) of 100 to 1000 nM.
With `Cl.O=C1N(C[C@H]2CCCO2)c2ccccc2C12COc1cc(O[C@H]3CCNC3)ccc12` (stereo partly drawn) [Example 11.56, 6-[(3S)-pyrrolidin-3-yloxy]-1′-[(2R)-tetrahydrofuran-2-ylmethyl]spiro[1-benzofuran-3,3′-indol]-2′(1′H)-one hydrochloride] the inhibition at 10 µM (CYP3A4) was less than 50%, the melting point was 119 to 121 °C and the IC50 (sodium channel) was 1000 to 10000 nM.
`CN(C)C(=O)c1cccc(CN2C(=O)C3(COc4cc5c(cc43)OCCO5)c3ccccc32)c1` (stereo not drawn) [Example 12.62, N,N-dimethyl-3-[(2′-oxo-2,3-dihydrospiro[furo[2,3-g][1,4]benzodioxine-8,3′-indol]-1′(2′H)-yl)methyl]benzamide] gave an inhibition at 10 µM (CYP3A4) greater than 50%, a melting point of 90 to 96 °C and an IC50 (sodium channel) of 100 to 1000 nM.
`Cc1nc2cc3c(cc2o1)C1(CO3)C(=O)N(C[C@H]2CCCO2)c2ccccc21` (stereo partly drawn) [Example 4.58, 2-methyl-1′-[(2R)-tetrahydrofuran-2-ylmethyl]spiro[furo[2,3-f][1,3]benzoxazole-7,3′-indol]-2′(1′H)-one] gave an inhibition at 10 µM (CYP3A4) of less than 50%, a melting point of 188 to 190 °C and an IC50 (sodium channel; activity level class) of 1000 to 10000 nM.
Molecule `COc1ccc(-c2cccc3c2C2(COc4cc5c(cc42)OCCO5)C(=O)N3Cc2ccccn2)cc1` (stereo not drawn) [Example 16.60, 4′-(4-methoxyphenyl)-1′-(pyridin-2-ylmethyl)-3,7-dihydro-2H-spiro[benzofuro[5,6-b][1,4]dioxine-8,3′-indolin]-2′-one] has an inhibition at 10 µM (CYP3A4) greater than 50%, a melting point of 205 to 206 °C and an IC50 (sodium channel) of 1 to 100 nM.
For `C[C@@H](CN1C(=O)C2(COc3cc4c(cc32)CCO4)c2ccccc21)OCc1ccccc1` (stereo partly drawn) [Example 14.1, 1′-[(2S)-2-(benzyloxy)propyl]-5,6-dihydrospiro[benzo[1,2-b:5,4-b′]difuran-3,3′-indol]-2′(1′H)-one], the inhibition at 10 µM (CYP3A4) was greater than 50%, the melting point was 45 to 47 °C and the IC50 (sodium channel) was 100 to 1000 nM.
Work on `O=C1N(Cc2ccccc2C(F)(F)F)c2ccccc2C12COc1cc3[nH]ncc3cc12` (stereo not drawn) [Example 46, 1′-[2-(trifluoromethyl)benzyl]-1H-spiro[furo[3,2-f]indazole-5,3′-indol]-2′(1′H)-one] yielded an inhibition at 10 µM (CYP3A4) greater than 50%, a melting point of 124 to 126 °C and an IC50 (sodium channel) of 1000 to 10000 nM.
Work on `CC(C)CCN1C(=O)C2(COc3cc(O)ccc32)c2ccccc21` (stereo not drawn) [Example 11.49, 6-hydroxy-1′-(3-methylbutyl)spiro[1-benzofuran-3,3′-indol]-2′(1′H)-one] yielded an inhibition at 10 µM (CYP3A4) greater than 50%, a melting point of 101 to 103 °C and an IC50 (sodium channel) of 1 to 100 nM.
For `O=C1N(Cc2ccc(Cl)s2)c2ccccc2C12COc1ccc(OCc3ccccc3)cc12` (stereo not drawn) [Example 1.4, 5-(benzyloxy)-1′-[(5-chloro-2-thienyl)methyl]spiro[1-benzofuran-3,3′-indol]-2′(1′H)-one], the inhibition at 10 µM (CYP3A4) was greater than 50%, the melting point was 132 to 135 °C and the IC50 (sodium channel; activity level class) was 1000 to 10000 nM.
Molecule `Cn1c(=O)oc2cc3c(cc21)C1(CO3)C(=O)N(C[C@H]2CCCO2)c2ccccc21` (stereo partly drawn) [Example 4.60, 1-methyl-1′-[(2R)-tetrahydrofuran-2-ylmethyl]spiro[furo[3,2-f][1,3]benzoxazole-7,3′-indole]-2,2′(1′H,1′H)-dione] has an inhibition at 10 µM (CYP3A4) of less than 50%, a melting point greater than 250 °C and an IC50 (sodium channel; activity level class) of 1000 to 10000 nM.
`O=C(NC1CCC1)c1ccc(CN2C(=O)C3(COc4cc5c(cc43)CCO5)c3ccccc32)cc1` (stereo not drawn) [Example 12.42, N-cyclobutyl-4-[(2-oxo-5,6-dihydrospiro[benzo[1,2-b:5,4-b′]difuran-3,3-indol]-1(2H)-yl)methyl]benzamide] showed an inhibition at 10 µM (CYP3A4) greater than 50%, a melting point greater than 250 °C and an IC50 (sodium channel) of 100 to 1000 nM.
`O=C1N(Cc2ncccc2C(F)(F)F)c2ccccc2C12COc1c2ccc2c1OCCO2` (stereo not drawn) [Example 5.37, 1′-{[3-(trifluoromethyl)pyridin-2-yl]methyl}-2,3-dihyrospiro[furo[2,3-f][1,4]benzodioxine-7,3′-indol]-2′(1′H)-one] showed an inhibition at 10 µM (CYP3A4) of less than 50%, a melting point of 206 to 207 °C and an IC50 (sodium channel; activity level class) of 100 to 1000 nM.
`COc1ccc2c(c1OC)C1(COc3cc4c(cc31)OCCO4)C(=O)N2Cc1ccc(C(F)(F)F)o1` (stereo not drawn) [Example 2.63, 4′,5′-dimethoxy-1′-{[5-(trifluoromethyl)furan-2-yl]methyl}-2,3-dihydrospiro[furo[2,3-g][1,4]benzodioxine-8,3′-indol]-2′(1′H)-one] gave an inhibition at 10 µM (CYP3A4) greater than 50%, a melting point of 62 to 65 °C and an IC50 (sodium channel; activity level class) of 100 to 1000 nM.
For `O=C1N(Cc2ccnnc2)c2ccccc2C12COc1cc3c(cc12)CCO3` (stereo not drawn) [Example 10, 1-(pyridazin-4-ylmethyl)-5,6-dihydrospiro[benzo[1,2-b:5,4-b′]difuran-3,3′-indol]-2′(1′H)-one], the inhibition at 10 µM (CYP3A4) was greater than 50%, the melting point was 187 to 189 °C and the IC50 (sodium channel) was 100 to 1000 nM.
Molecule `O=C1c2ccccc2C(=O)N1CCCN1C(=O)C2(COc3cc4c(cc32)CCO4)c2ccccc21` (stereo not drawn) [Example 9.66, 2-[3-(2′-oxo-5,6-dihydrospiro[benzo[1,2-b:5,4-b′]difuran-3,3′-indol]-1′(2′H)-yl)propyl]-1H-isoindole-1,3(2H)-dione] has an inhibition at 10 µM (CYP3A4) greater than 50%, a melting point of 214 to 217 °C and an IC50 (sodium channel) of 1 to 100 nM.
With `O=C1N(c2ccc(F)cc2)c2ccccc2C12COc1cc3c(cc12)OCCO3` (stereo not drawn) [Example 2.45, 1′-(4-fluorophenyl)-2,3-dihydrospiro[furo[2,3-g][1,4]benzodioxine-8,3′-indol]-2′(1′H)-one] the inhibition at 10 µM (CYP3A4) was less than 50%, the melting point was 210 to 212 °C and the IC50 (sodium channel; activity level class) was 1 to 100 nM.
Work on `NC(=O)c1ccc(CN2C(=O)C3(COc4cc5c(cc43)OCCO5)c3ccccc32)cc1` (stereo not drawn) [Example 12.60, 4-[(2′-oxo-2,3-dihydrospiro[furo[2,3-g][1,4]benzodioxine-8,3′-indol]-1′(2′H)-yl)methyl]benzamide] yielded an inhibition at 10 µM (CYP3A4) greater than 50%, a melting point of 236 to 238 °C and an IC50 (sodium channel) of 1 to 100 nM.
`O=C1Nc2ccccc2C12COc1cc(F)c(F)cc12` (stereo not drawn) [Example 3.44, 5,6-difluorospiro[1-benzofuran-3,3′-indol]-2′(1′H)-one] showed an inhibition at 10 µM (CYP3A4) greater than 50%, a melting point greater than 200 °C and an IC50 (sodium channel; activity level class) of 1000 to 10000 nM.
In the case of `Cl.O=C1N(CCCNCC(F)(F)F)c2ccccc2C12COc1cc3c(cc12)CCO3` (stereo not drawn) [Example 15.3, 1′-{3-[(2,2,2-trifluoroethyl)amino]propyl}-5,6-dihydrospiro[benzo[1,2-b:5,4-b′]difuran-3,3′-indol]-2′(1′H)-one hydrochloride], the inhibition at 10 µM (CYP3A4) is reported as greater than 50%, the melting point is reported as 124 to 126 °C and the IC50 (sodium channel) is reported as 100 to 1000 nM.
Molecule `Cc1ccc(NC(=O)c2ccc(CN3C(=O)C4(COc5cc6c(cc54)CCO6)c4ccccc43)cc2)c(C)c1` (stereo not drawn) [Example 12.37, N-(2,4-dimethylphenyl)-4-[(2′-oxo-5,6-dihydrospiro[benzo[1,2-b:5,4-b′]difuran-3,3′-indol]-1′(2′H)-yl)methyl]benzamide] has an inhibition at 10 µM (CYP3A4) of less than 50%, a melting point of 249 to 251 °C and an IC50 (sodium channel) of 100 to 1000 nM.
With `O=C(Nc1nccs1)c1ccc(CN2C(=O)C3(COc4cc5c(cc43)CCO5)c3ccccc32)cc1` (stereo not drawn) [Example 12.43, 4-[(2′-oxo-5,6-dihydrospiro[benzo[1,2-b:5,4-b′]difuran-3,3′-indol]-1′(2′H)-yl)methyl]-N-1,3-thiazol-2-ylbenzamide] the inhibition at 10 µM (CYP3A4) was less than 50%, the melting point was greater than 250 °C and the IC50 (sodium channel) was 100 to 1000 nM.
